Here are results for two compounds from EPA's ToxValDB 9.5 (doi:10.2903/j.efsa.2009.1348).

For series [1] the following is noted: chronic/long-term.
The next series deals with Apis mellifera. The conditions noted are these: acute; duration: 48 hours; oral; unspecified; mortality.
A further series relates to Bibionidae. Conditions: chronic/long-term; duration: 28 days.
For a further series, the system named is Bird. Conditions: for LD50: acute, unspecified.
The test system of a further series is Canidae. The conditions noted are these: chronic; duration: 1 years; oral; Dog Other; organ weight.
Another series deals with Daphnia magna. Conditions: chronic/long-term; duration: 21 days; reproduction.
For the next series, the system named is Lepomis macrochirus. Conditions: acute; duration: 96 hours; mortality.
For another series, the system named is Oryctolagus sp. The conditions noted are these: reproduction developmental; reproduction.
In a further series the test system is Oncorhynchus mykiss. The conditions noted are these: chronic/long-term; duration: 28 days.

Structures are written as SMILES. Values after ≈ are worked out from the molar mass of the structure shown.

By NOAEL is commonly meant the highest tested level that showed no adverse finding. With `C[C@@H](Oc1ccc(Oc2ncc(C(F)(F)F)cc2Cl)cc1)C(=O)O` [Haloxyfop-P], the NOAEL amounted to 1 mg/kg-day in series [1]; 0.5 mg/kg-day in the series on Canidae; 7.5 mg/kg-day in the series on Oryctolagus sp.; 0.065 mg/kg-day in the series with Rattus norvegicus (chronic, duration: 2 years, organ weight); 0.065 mg/kg-day in the series with Rattus norvegicus (reproduction developmental, body weight). Also, the LEL amounted to 5.7 g/ha in the series with Aphidius rhopalosiphi (chronic/long-term, reproduction) and 108 g/ha in the series on Aphidius rhopalosiphi (not reported, mortality). The LD50 with Apis mellifera was over 100 µg/piece; with Bird (oral, mortality), 414 mg/kg; in the series with Rattus norvegicus (acute, oral, mortality), 300 mg/kg. The NOEC in the series with Bibionidae worked out at 2.5 mg/L; in the series with Bird (reproductive) it was 17.1 mg/kg-day; in the series on Daphnia magna it was 0.509 mg/L; in the series with Tagia sp. (chronic/long-term), 810 g/ha. Also, the LC50 in the series on Bird (short-term, oral, feed, mortality) was over 1110 mg/kg-day; in the series on Lepomis macrochirus it was 0.0884 µg/mL (≈ 0.244 µM); in the series on Tagia sp. (acute, mortality) it was 830 mg/kg.
Turning to `COC(=O)[C@@H](C)Oc1ccc(Oc2ncc(C(F)(F)F)cc2Cl)cc1` [Haloxyfop-P-methyl], the LD50 in the series with Bird (oral, mortality) amounted to 1160 mg/kg-day. For the same compound, the NOEC in the series on Oncorhynchus mykiss stood at 0.0052 mg/L.
